Converted amounts (≈) assume the structure as drawn. Structures can show the parent of a compound that is named as a salt.
Assays:
KB cells = test: In vitro KB cell cytotoxicity assay (crystal violet); type: cell-based; settings: Homo sapiens, 72 h, 3 days culture, read-out: KB Cell Cytotoxicity TD50
Description: In Vitro KB Cell Cytotoxicity Assay In vitro KB cell cytoxocity assay was done by modification of the crystal violet assay ([…] et al., Anal Biochem., 159, 109-113 (1986). KB cells were cultivated in Eagles minimum essential medium supplemented with 10% calf serum and incubated at 37° C. in a humidified 5% CO2 atmosphere to prepare a cell stock. Cells were counted using a neubauer hemocytometer and seeded in 96 well plates at 100 μl of 3×10^4 cells/ml and cultured for one day. […] Control wells were identical except that test compound was absent. These were cultured for three days. Then the cells were fixed with addition of 20 μl of 25% glutaraldehyde for 15 minutes, washed with water and dried. Then stained with 100 μl of 0.05% crystal violet for 15 minutes, washed with water and dried. The wells are eluted with […] of 0.05M NaH2 PO4 /ethanol (1:1 v/v) and read at OD540 on a multiscan spectrophotometer. Inhibition value of cell growth was calculated based on optical density using the following equation; [formula] TD50 values were calculated from linear regression ines of the log-logit plot.

Sarcoma 180 = test: In vivo antitumor activity against Sarcoma 180; design: species or system male ICR mice; settings: i.p., days 1, 5 and 9
Description: In Vivo Antitumor Activity Against Sarcoma 180
The compounds of general formula (I) were tested in vivo against Sarcoma 180 xenografted tumor to mice as illustrated herein after.
Sarcoma 180, 5×10^6 cells were inoculated by S.C. to male ICR mice (6 week old) on day 0. Drugs were administered on days 1, 5 and 9. Mice were killed and tumor weight was measured on day 12 after transplantation. The percentage inhibition of tumor growth was calculated from the mean tumor weight of the treated group compared with that of the control group. Number of mice used in each group was between 6 to 7.

[1] = Mus musculus, Sarcoma-180, ip, 288 h, 12.5 mg/kg/day, tumor s.c., tumor weight day 12, read-out: % Inhibition of tumor growth
[2] = Mus musculus, Sarcoma-180, ip, 288 h, 25 mg/kg/day, tumor s.c., tumor weight day 12, read-out: % Inhibition of tumor growth
[3] = Mus musculus, Sarcoma-180, ip, 288 h, 50 mg/kg/day, tumor s.c., tumor weight day 12, read-out: % Inhibition of tumor growth
[4] = Mus musculus, Sarcoma-180, ip, 288 h, 40 mg/kg/day, tumor s.c., tumor weight day 12, read-out: % Inhibition of tumor growth
[5] = Mus musculus, Sarcoma-180, ip, 288 h, 100 mg/kg/day, tumor s.c., tumor weight day 12, read-out: % Inhibition of tumor growth
[6] = Mus musculus, Sarcoma-180, ip, 288 h, 6.3 mg/kg/day, tumor s.c., tumor weight day 12, read-out: % Inhibition of tumor growth

Row | Compound | IC50 (KB cells) [µg/mL] | Mortality in 12 days (Sarcoma 180; 12.5 mg/kg/day) | Mortality in 12 days (Sarcoma 180; 25 mg/kg/day) | inhibition in vivo at 12.5 mg/kg (Sarcoma 180; [1]) [%] | inhibition in vivo at 25 mg/kg (Sarcoma 180; [2]) [%] | Mortality in 12 days (Sarcoma 180; 50 mg/kg/day) | inhibition in vivo at 50 mg/kg (Sarcoma 180; [3]) [%] | also measured
1 | CC(=O)NCC(=O)NC[C@@H]1CN2C(=O)C[C@H]2O1 (relative stereo) [Example 44, (3RS,5RS)-3-N-(N-Acetylaminoacetyl)aminomethyl-4-oxa-1-azabicyclo[3.2.0]heptan-7-one] | 0.341 (≈ 1.41 µM) | 0/6 | 4/6 | 45.9 | 85.3 | – | – | –
2 | CC(C)[C@H](N)C(=O)NCC(=O)OC[C@H]1CN2C(=O)C[C@@H]2O1.Cl (mixture of isomers) [Example 42B, (3RS,5SR)-3-[N-(L-2-Amino-3-methylbutyryl)aminoacetyl]oxymethyl-4-oxa-1-azabicyclo[3.2.0]heptan-7-one hydrochloride] | 0.388 | 0/6 | 0/6 | 49.9 | 69 | 0/6 | 85.8 | –
3 | Cl.NC[C@@H]1CN2C(=O)C[C@H]2O1 (racemic) [Example 22, (3RS,5RS)-3-aminomethyl-4-oxa-1-azabicyclo[3.2.0]heptan-7-one hydrochloride] | 0.344 | – | – | – | – | – | – | Mortality in 12 days (Sarcoma 180; 40 mg/kg/day): 0/6; Mortality in 12 days (Sarcoma 180; 80 mg/kg/day): 0/6; inhibition in vivo at 40 mg/kg (Sarcoma 180; [4]): 26.7%; inhibition in vivo at 80 mg/kg (Sarcoma 180; Mus musculus, Sarcoma-180, ip, 288 h, 80 mg/kg/day, tumor s.c., tumor weight day 12, read-out: % Inhibition of tumor growth): 40.3%
4 | N[C@@H](CC(=O)O)C(=O)NCC1CN2C(=O)CC2O1 (stereo partly drawn) [Example 67B, (3RS,5RS)-3-N-(L-2-Amino-3-carboxypropanoyl)aminomethyl-4-oxa-1-azabicyclo[3.2.0]heptan-7-one] | 6.04 (≈ 23.5 µM) | – | – | – | – | 0/6 | 41.1 | Mortality in 12 days (Sarcoma 180; 100 mg/kg/day): 0/6; inhibition in vivo at 100 mg/kg (Sarcoma 180; [5]): 65.9%
5 | CC(C)[C@H](NC(=O)CN)C(=O)OCC1CN2C(=O)CC2O1 (stereo partly drawn) [Example 55B, (3RS,5SR)-3-[L-2-(N-Aminoacetyl)amino-3-methylbutyryl]oxymethyl-4-oxa-1-azabicyclo[3.2.0]heptan-7-one hydrochloride] | 0.522 | – | 0/6 | – | 47.6 | 0/6 | 74.4 | –
6 | CC(=O)NC[C@H]1CN2C(=O)C[C@@H]2O1 [Example 2, (3S,5S)-3-(N-Acetylaminomethyl)-4-oxa-1-azabicyclo[3.2.0]heptan-7-one] | 0.77 (≈ 4.18 µM) | – | – | – | – | – | – | Mortality in 12 days (Sarcoma 180; 10 mg/kg/day): 0/6; Mortality in 12 days (Sarcoma 180; 20 mg/kg/day): 1/7; inhibition in vivo at 10 mg/kg (Sarcoma 180; Mus musculus, Sarcoma-180, ip, 288 h, 10 mg/kg/day, tumor s.c., tumor weight day 12, read-out: % Inhibition of tumor growth): 44.7%; inhibition in vivo at 20 mg/kg (Sarcoma 180; Mus musculus, Sarcoma-180, ip, 288 h, 20 mg/kg/day, tumor s.c., tumor weight day 12, read-out: % Inhibition of tumor growth): 77.5%
7 | C[C@H](N)C(=O)NCC(=O)OC[C@H]1CN2C(=O)C[C@@H]2O1.Cl (mixture of isomers) [Example 41B, (3RS,5SR)-3-[N-(L-2-Aminopropanoyl)aminoacetyl]oxymethyl-4-oxa-1-azabicyclo[3.2.0]heptan-7-one hydrochloride] | 0.295 | 0/6 | 0/6 | 43.9 | 62.8 | – | – | –
8 | CC(C)[C@@H](N)C(=O)N[C@@H](C(=O)OCC1CN2C(=O)CC2O1)C(C)C (stereo partly drawn) [Example 62B, (3RS,5SR)-3-[D-2-N-(D-2-Amino-3-methylbutyryl)amino-3-methylbutyryl]oxymethyl-4-oxa-1-azabicyclo[3.2.0]heptan-7-one hydrochloride] | 0.381 | – | – | – | – | – | – | Mortality in 12 days (Sarcoma 180; 100 mg/kg/day): 0/6; inhibition in vivo at 100 mg/kg (Sarcoma 180; [5]): 42.1%
9 | N[C@@H](Cc1ccccc1)C(=O)NCC1CN2C(=O)CC2O1 (stereo partly drawn) [Example 63B, (3RS,5RS)-3-N-(L-2-Amino-3-phenylpropanoyl)aminomethyl-4-oxa-1-azabicyclo[3.2.0]heptan-7-one hydrochloride] | 0.573 | – | – | – | – | 0/6 | 50.3 | Mortality in 12 days (Sarcoma 180; 100 mg/kg/day): 0/6; inhibition in vivo at 100 mg/kg (Sarcoma 180; [5]): 57.6%
10 | N[C@@H](CC(=O)OC[C@H]1CN2C(=O)C[C@@H]2O1)C(=O)O (mixture of isomers) [Example 65B, (3RS,5SR)-3-(L-3-Amino-3-carboxypropanoyl)oxymethyl-4-oxa-1-azabicyclo[3.2.0]heptan-7-one] | 0.451 | – | – | – | – | – | – | Mortality in 12 days (Sarcoma 180; 100 mg/kg/day): 0/6; inhibition in vivo at 100 mg/kg (Sarcoma 180; [5]): 55%
11 | COc1ccc(S(=O)(=O)NC[C@H]2CN3C(=O)C[C@@H]3O2)cc1 (relative stereo) [Example 38, (3RS,5RS)-3-N-(4-Methoxybenzenesulfonyl)aminomethyl-4-oxa-1-azabicyclo[3.2.0]heptan-7-one] | 0.158 (≈ 0.506 µM) | – | 0/6 | – | 26.5 | 0/6 | 55.4 | Mortality in 12 days (Sarcoma 180; 100 mg/kg/day): 1/6; inhibition in vivo at 100 mg/kg (Sarcoma 180; [5]): 72%
12 | N[C@@H](CC(=O)O)C(=O)OC[C@H]1CN2C(=O)C[C@@H]2O1 (mixture of isomers) [Example 66B, (3RS,5SR)-3-(L-2-Amino-3-carboxypropanoyl)oxymethyl-4-oxa-1-azabicyclo[3.2.0]heptan-7-one] | 0.204 | 0/6 | 0/6 | 53.2 | 62.9 | – | – | Mortality in 12 days (Sarcoma 180; 6.3 mg/kg/day): 0/6; inhibition in vivo at 6.3 mg/kg (Sarcoma 180; [6]): 33.7%
13 | O=C(Cc1cccs1)NC[C@@H]1CN2C(=O)C[C@H]2O1 (racemic) [Example 31, (3RS,5RS)-3-[N-(Thiophen-2-yl)acetylaminomethyl]-4-oxa-1-azabicyclo[3.2.0]heptan-7-one] | 0.098 (≈ 0.368 µM) | – | – | – | – | – | – | Mortality in 12 days (Sarcoma 180; 40 mg/kg/day): 1/6; inhibition in vivo at 40 mg/kg (Sarcoma 180; [4]): 35.5%
14 | O=C(NC[C@@H]1CN2C(=O)C[C@H]2O1)NC[C@@H]1CN2C(=O)C[C@H]2O1 (racemic) [Example 34, N,N'-Di-{[(3RS,5RS)-7-oxo-1-aza-4-oxabicyclo[3.2.0]hept-3-yl]methyl}urea] | 0.151 (≈ 0.487 µM) | 0/6 | 5/6 | 76.3 | 92.5 | – | – | Mortality in 12 days (Sarcoma 180; 6.25 mg/kg/day): 0/6; inhibition in vivo at 6.25 mg/kg (Sarcoma 180; Mus musculus, Sarcoma-180, ip, 288 h, 6.25 mg/kg/day, tumor s.c., tumor weight day 12, read-out: % Inhibition of tumor growth): 59.8%
15 | C[C@@H](N)C(=O)NCC1CN2C(=O)CC2O1 (stereo partly drawn) [Example 53B, (3RS,5RS)-3-N-(D-2-Aminopropanoyl)aminomethyl-4-oxa-1-azabicyclo[3.2.0]heptan-7-one hydrochloride] | 0.316 | 0/6 | 1/6 | 61.9 | 73.8 | – | – | Mortality in 12 days (Sarcoma 180; 6.3 mg/kg/day): 0/6; inhibition in vivo at 6.3 mg/kg (Sarcoma 180; [6]): 47.3%
16 | Cl.NCC(=O)NCC(=O)OC[C@H]1CN2C(=O)C[C@@H]2O1 (racemic) [Example 40B, (3RS,5SR)-3-[N-(Aminoacetyl)aminoacetyl]oxymethyl-4-oxa-1-azabicyclo[3.2.0]heptan-7-one hydrochloride] | 0.636 | 0/6 | 0/6 | 48.3 | 54 | 0/6 | 72 | –
17 | CC(C)[C@H](N)C(=O)NCC(=O)NC[C@@H]1CN2C(=O)C[C@H]2O1.Cl (mixture of isomers) [Example 45B, (3RS,5RS)-3-[N-(L-2-amino-3-methylbutyryl)aminoacetyl]aminomethyl-4-oxa-1-azabicyclo[3.2.0]heptan-7-one hydrochloride] | 1.97 | – | 0/6 | – | 39.3 | 0/6 | 81.7 | –

From patent US5994342A, “3-(substituted methyl)-4-oxa-1-azabicyclo[3.2.0]heptan-7-one derivatives useful as antitumor agents” (priority 1994, dated 1999)
